Source: patent US20070185161A1, “Bicyclic substituted indole-derivative steroid hormone nuclear receptor modulators” (priority 2004, published 2007)

Target: T1, human MR (Homo sapiens, UniProt P08235)
T1 construct: The full length human MR gene is cloned from a human kidney or human brain cDNA library; made in house; host or cells: SF9 insect cells (baculovirus)
T1 sequence (P08235 1-984): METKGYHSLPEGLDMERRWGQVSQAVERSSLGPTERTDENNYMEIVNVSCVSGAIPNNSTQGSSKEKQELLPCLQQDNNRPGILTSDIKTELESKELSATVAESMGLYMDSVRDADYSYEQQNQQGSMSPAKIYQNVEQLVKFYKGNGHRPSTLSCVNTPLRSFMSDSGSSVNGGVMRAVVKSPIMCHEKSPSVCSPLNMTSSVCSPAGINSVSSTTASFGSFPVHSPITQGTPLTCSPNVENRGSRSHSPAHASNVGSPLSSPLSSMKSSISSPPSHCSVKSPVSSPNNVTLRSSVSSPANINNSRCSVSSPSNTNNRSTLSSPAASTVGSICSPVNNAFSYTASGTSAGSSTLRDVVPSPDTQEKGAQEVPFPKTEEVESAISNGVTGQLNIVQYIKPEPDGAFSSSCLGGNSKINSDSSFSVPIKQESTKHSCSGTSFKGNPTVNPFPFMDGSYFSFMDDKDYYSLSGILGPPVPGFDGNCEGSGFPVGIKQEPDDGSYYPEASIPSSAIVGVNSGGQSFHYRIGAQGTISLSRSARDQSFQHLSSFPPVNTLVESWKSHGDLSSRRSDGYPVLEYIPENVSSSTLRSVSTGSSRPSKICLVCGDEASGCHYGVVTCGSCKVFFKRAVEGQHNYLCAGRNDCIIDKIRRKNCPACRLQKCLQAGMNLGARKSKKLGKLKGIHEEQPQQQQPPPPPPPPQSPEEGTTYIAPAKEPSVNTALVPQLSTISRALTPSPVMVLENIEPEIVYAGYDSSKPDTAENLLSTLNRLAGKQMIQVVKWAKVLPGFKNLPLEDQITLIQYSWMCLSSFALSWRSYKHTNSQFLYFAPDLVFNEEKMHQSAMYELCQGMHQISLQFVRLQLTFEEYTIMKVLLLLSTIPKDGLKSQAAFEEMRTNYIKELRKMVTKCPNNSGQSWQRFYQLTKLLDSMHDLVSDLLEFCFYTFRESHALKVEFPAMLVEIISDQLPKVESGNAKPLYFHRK
Experiment: Mineralocorticoid Receptor Binding Assay (Method 1)
Conditions: [3H]-aldosterone, racemic mixture unless otherwise indicated
Method: The full length human MR gene is cloned from a human kidney or human brain cDNA library. Briefly, using synthetic oligonucleotide primers (Eli Lilly and Company, Indianapolis) directed to nucleotides 20-54 and 3700-3666 of the human MR, polymerase chain reaction (PCR) is performed under standard conditions using a human cDNA library. The PCR reaction is performed in a final volume of 50 μl containing about 1 μl of a 50× stock solution of polymerase; about 1 μl of a 50× stock solution of dNTP; about 5 μl of an appropriate PCR buffer; about 1 μl of each primer; about 5 μl of a H. kidney or H. brain cDNA library; and about 36 μl of water. The reaction is allowed to denature for about 30 seconds at 95 degrees Celsius, anneal for about 30 seconds at 55 degrees Celsius, and extend for about 5 minutes at 72 degrees Celsius, the sequence being repeated for a total of about 35 cycles. The desired PCR product (3.68 Kb) is confirmed by gel electrophoresis and subsequently cut from the gel and stored at about −20 degrees Celsius until extraction. To extract the cDNA product from the agarose gel, the QIAEX II Gel Extraction protocol (QIAGEN, Inc.) is employed according to the manufacturer's instructions. Following extraction, the MR cDNA is cloned into an appropriate cloning vector (Zero Blunt TOPO PCR Cloning Kit (Invitrogen, Inc.) and a pAcHLT-baculovirus transfer vector (B.D./Pharminogen), then expressed in SF9 insect cells, essentially according to manufacturer's instructions. Sf9 cells are grown at a scale where gram quantity cell pellets are obtained for subsequent use in the MR binding assay. Harvested cell pellets are lysed by repeated freeze-thaw cycles (about 4) in a suitable lysis buffer then centrifuged at about 1×10^3 G (with the supernatant being saved for future assays).
MR binding assays are performed in a final total volume of about 250 μl containing about 20-25 μg of protein and 0.5 nM of [^3H]-aldosterone plus varying concentrations of test compound or vehicle. The assay binding buffer consists of 30 mM sodium molybdate, 30 mM of TRIS-HCl, 5 mM sodium phosphate, 5 mM sodium pyrophosphate, and about 10% glycerol, pH=7.5.
Briefly, assays are prepared at RT in 96-well Falcon 3072 plates, each well containing 210 μl of binding buffer, 10 μl of [^3H]-aldosterone, 10 μl of test compound/vehicle, and 20 μl of the resuspended receptor protein extract. Incubations are carried out at 4 degrees Celsius with shaking for about 16 hours. 200 μl aliquots of each incubation are filtered onto Millipore HA 0.45 micron 96-well filter plates, pre-moistened with cold 30 mM TRIS-HCl. The filter plates are suctioned dry with vacuum and immediately washed 3× with cold 30 mM TRIS-HCl. The plates are then punched out and the amount of receptor-ligand complex is determined by liquid scintillation counting using 4 ml of Ready Protein Plus™ liquid scintillation cocktail.
IC50 values (defined as the concentration of test compound required to decrease [^3H]-aldosterone binding by 50%) are then determined. Ki values for each respective test compound can then be calculated by application of the Cheng-Prusoff equation as described in Cheng et al., Relationship Between The Inhibition Constant (Ki) and The Concentration of Inhibitor Which Causes 50% Inhibition (IC50) of an Enzymatic Reaction, Biochem. Pharmacol., 22: 3099-31088; (1973).
CC1(c2c[nH]c3c(NS(C)(=O)=O)cccc23)CCCc2cc(F)cc(F)c21 (racemic) [Example 30, N-[3-(6,8-Difluoro-1-methyl-1,2,3,4-tetrahydro-naphthalen-1-yl)-1H-indol-7-yl]-methanesulfonamide] showed a Ki of at most 500 nM. For CC1(c2c[nH]c3c(NS(C)(=O)=O)cccc23)CCCc2cc(F)cc(F)c21 (single isomer, unassigned) [Example 30A, N-[3-(6,8-Difluoro-1-methyl-1,2,3,4-tetrahydro-naphthalen-1-yl)-1H-indol-7-yl]-methanesulfonamide], the Ki was at most 500 nM. For CC1(c2c[nH]c3c(NS(C)(=O)=O)cccc23)CCCc2cc(F)cc(F)c21 (single isomer, unassigned) [Example 30B, N-[3-(6,8-Difluoro-1-methyl-1,2,3,4-tetrahydro-naphthalen-1-yl)-1H-indol-7-yl]-methanesulfonamide], the Ki was at most 500 nM. Work on CCC1(c2c[nH]c3c(NS(C)(=O)=O)cccc23)CCCc2cc(F)cc(F)c21 (single isomer, unassigned) [Example 31A, N-[3-(1-Ethyl-6,8-difluoro-1,2,3,4-tetrahydro-naphthalen-1-yl)-1H-indol-7-yl]-methanesulfonamide] yielded a Ki of at most 500 nM. With CCC1(c2c[nH]c3c(NS(C)(=O)=O)cccc23)CCCc2cc(F)cc(F)c21 (single isomer, unassigned) [Example 31B, N-[3-(1-Ethyl-6,8-difluoro-1,2,3,4-tetrahydro-naphthalen-1-yl)-1H-indol-7-yl]-methanesulfonamide] the Ki was at most 500 nM. CCC1(c2c[nH]c3ccccc23)CCc2cc(F)ccc21 (centres unmarked) [Example 6, 3-(1-Ethyl-5-fluoro-indan-1-yl)-1H-indole] showed a Ki of at most 500 nM. Work on CCC1(c2c[nH]c3c(F)cccc23)CCc2cc(F)ccc21 (centres unmarked) [Example 7, 3-(1-Ethyl-5-fluoro-indan-1-yl)-7-fluoro-1H-indole] yielded a Ki of at most 500 nM. Work on CCC1(c2c[nH]c3c(Br)cccc23)CCc2cc(F)ccc21 (centres unmarked) [Example 8, 7-Bromo-3-(1-ethyl-5-fluoro-indan-1-yl)-1H-indole] yielded a Ki of at most 500 nM. For CCC1(c2c[nH]c3c(Cl)cccc23)CCc2cc(F)ccc21 (centres unmarked) [Example 9, 7-Chloro-3-(1-ethyl-5-fluoro-indan-1-yl)-1H-indole], the Ki was at most 500 nM. Work on CCc1cccc2c(C3(CC)CCc4cc(F)ccc43)c[nH]c12 (centres unmarked) [Example 10, 7-Ethyl-3-(1-ethyl-5-fluoro-indan-1-yl)-1H-indole] yielded a Ki of at most 1000 nM. Work on CCC1(c2c[nH]c3c(OC)cccc23)CCc2cc(F)ccc21 (centres unmarked) [Example 12, 3-(1-Ethyl-5-fluoro-indan-1-yl)-7-methoxy-1H-indole] yielded a Ki of at most 500 nM.

Target: T2, human GR (glucocorticoid receptor) (Homo sapiens, UniProt P04150)
T2 construct: expressed in transfected cells; host or cells: 293 cells
T2 sequence (P04150 1-777): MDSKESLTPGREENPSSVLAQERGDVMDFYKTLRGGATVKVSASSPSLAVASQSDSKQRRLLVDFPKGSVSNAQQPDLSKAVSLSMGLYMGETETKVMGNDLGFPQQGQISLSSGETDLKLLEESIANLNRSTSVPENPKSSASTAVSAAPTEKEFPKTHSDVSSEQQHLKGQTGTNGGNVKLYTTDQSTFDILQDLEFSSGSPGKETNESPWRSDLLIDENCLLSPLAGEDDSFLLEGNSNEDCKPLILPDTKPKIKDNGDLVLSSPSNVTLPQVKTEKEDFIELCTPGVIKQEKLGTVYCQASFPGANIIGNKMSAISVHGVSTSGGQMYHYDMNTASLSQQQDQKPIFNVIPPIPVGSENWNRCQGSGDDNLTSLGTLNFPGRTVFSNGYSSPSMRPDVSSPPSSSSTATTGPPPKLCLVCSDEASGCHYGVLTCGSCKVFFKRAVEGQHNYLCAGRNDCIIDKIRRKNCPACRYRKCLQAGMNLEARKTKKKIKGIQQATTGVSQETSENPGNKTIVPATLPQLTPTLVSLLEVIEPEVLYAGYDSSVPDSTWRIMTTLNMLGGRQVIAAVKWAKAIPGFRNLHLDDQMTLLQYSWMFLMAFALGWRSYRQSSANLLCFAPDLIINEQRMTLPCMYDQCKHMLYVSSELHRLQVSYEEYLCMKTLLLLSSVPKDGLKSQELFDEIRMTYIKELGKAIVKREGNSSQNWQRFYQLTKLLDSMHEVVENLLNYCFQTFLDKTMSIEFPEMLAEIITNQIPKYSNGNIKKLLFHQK
Experiment: Alternative Binding Assay Protocol (Method 2), GR
Conditions: 3H-dexamethasone, 293-GR lysate, racemic mixture unless otherwise indicated
Method: Cell lysates from 293 cells overexpressing human GR (glucocorticoid receptor), AR (androgen receptor), MR (mineralocorticoid receptor) or PR (progesterone receptor) are used for competition binding assays to determine Ki values for test compounds. Briefly, competition binding assays are run in a buffer containing 20 mM Hepes, pH 7.6, 0.2 mM EDTA, 75 mM NaCl, 1.5 mM MgCl2, 20% glycerol, 20 mM sodium molybdate, 0.2 mM DTT, 20 ug/ml aprotinin and 20 ug/ml leupeptin, using either 0.3 nM ^3H-dexamethasone for GR binding, 0.36 nM ^3H-methyltrienolone for AR binding, 0.25 nM ^3H-aldosterone for MR binding, or 0.29 nM ^3H-methyltrienolone for PR binding, and either 20 ug 293-GR lysate, 22 ug 293-AR lysate, 20 ug 293-MR lysate or 40 ug 293-PR lysate per well. Competing compounds are added at various concentraions in half-log increments. Non-specific binding is determined in the presence of 500 nM dexamethasone for GR binding, 500 nM aldosterone for MR binding, or 500 nM methyltrienolone for AR and PR binding,. The binding reaction (140 μl) is incubated for overnight at […], then 70 μl of cold charcoal-dextran buffer (containing per 50 ml of assay buffer, 0.75 g of charcoal and 0.25 g of dextran) is added to each reaction. Plates are mixed 8 minutes on an orbital shaker at 4° C. Plates are then centrifuged at 3,000 rpm at 4° C. for 10 minutes. An aliquot of 120 μl of the mix is transferred to another 96-well plate and 175 μl of Wallac Optiphase “Hisafe 3” scintillation fluid is added to each well. Plates are sealed and shaken vigorously on an orbital shaker. After an incubation of 2 hrs, plates are read in a Wallac Microbeta counter. The data is used to calculate an IC50 and % Inhibition at 10 μM. The Kd for ^3H-dexamethasone for GR binding, ^3H-methyltrienolone for AR binding, ^3H-aldosterone for MR binding, or ^3H-methyltrienolone for PR binding, is determined by saturation binding. The IC50 values for compounds are converted to Ki using Cheng-Prusoff equation and the Kd determined by saturation binding assay.
In the case of CN(C)CCCC1(c2c[nH]c3c(NS(C)(=O)=O)cccc23)CCc2cc(F)ccc21 (centres unmarked) [Example 43, N-{3-[1-(3-Dimethylamino-propyl)-5-fluoro-indan-1-yl]-1H-indol-7-yl}-methanesulfonamide], the Ki is reported as at most 10000 nM.

Test system: patients suffering from advanced CHF
Experiment: not given
Conditions: in combination with standard CHF therapy; cited from earlier work
In the case of CC(=O)S[C@@H]1CC2=CC(=O)CC[C@]2(C)[C@H]2CC[C@@]3(C)[C@@H](CC[C@@]34CCC(=O)O4)[C@H]12 [spironolactone], the “reduced cardiac related mortality” value is listed as 30% and the “reduced frequency of hospitalization” value is listed as 35%.
